# Data taken from ChEMBL document CHEMBL4765377, “Design, synthesis, and evaluation of amphiphilic sofalcone derivatives as potent Gram-positive antibacterial agents” (Eur J Med Chem, 2020).
# Legend:
# [1] = Hemolytic activity in rabbit RBC after 60 mins; format: ADME, cell-based, Oryctolagus cuniculus, Erythrocyte; details: rabbit red blood cells (erythrocytes)
# Staphylococcus aureus [2] = assay: Antibacterial activity against Staphylococcus aureus ATCC 29213 assessed as reduction in bacterial growth after 24 hrs by CLSI based broth micro dilution method; format: functional
# Staphylococcus aureus [3] = assay: Antibacterial activity against methicillin-resistant Staphylococcus aureus NCTC10442 assessed as reduction in bacterial growth after 24 hrs by CLSI based broth micro dilution method; format: functional
# Staphylococcus aureus [4] = assay: Antibacterial activity against methicillin-resistant Staphylococcus aureus N315 assessed as reduction in bacterial growth after 24 hrs by CLSI based broth micro dilution method; format: functional
# Escherichia coli = assay: Antibacterial activity against Escherichia coli ATCC 25922 assessed as reduction in bacterial growth after 24 hrs by CLSI based broth micro dilution method; format: functional
# Staphylococcus aureus [5] = assay: Bactericidal activity against Staphylococcus aureus ATCC 29213 assessed as reduction in bacterial load at 2 time of MIC concentration preincubated for 240 mins followed by compound washout further subculturing and measured after 24 hrs by time-kill assay; format: functional; details: 4 h
# Staphylococcus aureus [6] = assay: Antibacterial activity against Staphylococcus aureus ATCC 29213 infected in C57BL6 mouse assessed as reduction in bacterial load at 33.65 mmol/L, administered topically at 2 hrs interval for 3 days; format: functional; details: time 3 day
# Staphylococcus aureus [7] = assay: Bactericidal activity against Staphylococcus aureus ATCC 29213 assessed as reduction in bacterial load at MIC concentration preincubated for 240 mins followed by compound washout further subculturing and measured after 24 hrs by time-kill assay; format: functional; details: 4 h
SMILES,HC50 at 1 h [1],MIC (Staphylococcus aureus [2]),MIC (Staphylococcus aureus [3]),MIC (Staphylococcus aureus [4]),MIC (Escherichia coli),log(activity) (Staphylococcus aureus [5]),log(activity) (Staphylococcus aureus [6]),log(activity) (Staphylococcus aureus [7])
CC(C)=CCOc1ccc(/C=C/C(=O)c2ccc(OCC=C(C)C)cc2OCC(=O)N[C@@H](CCCNC(=N)N)C(N)=O)cc1,78.7 µg/mL,3.13 mg/L,3.13 mg/L,1.56 mg/L,12.5 mg/L,,,
CC(C)=CCOc1ccc(/C=C/C(=O)c2ccc(OCC=C(C)C)cc2OCC(=O)NCCCN2CCN(C)CC2)cc1,36.5 µg/mL,6.25 mg/L,6.25 mg/L,6.25 mg/L,> 100 mg/L,,,
COC(=O)[C@H](CCCNC(=N)N)NC(=O)COc1cc(OCC=C(C)C)ccc1C(=O)/C=C/c1ccc(OCC=C(C)C)cc1,70 µg/mL,1.56 mg/L,1.56 mg/L,1.56 mg/L,50 mg/L,,,
CC(C)=CCOc1ccc(/C=C/C(=O)c2ccc(OCC=C(C)C)cc2OCC(=O)O)cc1 [SOFALCONE],> 200 µg/mL,> 50 mg/L,> 50 mg/L,50 mg/L,> 50 mg/L,,,
CN[C@H](CC(C)C)C(=O)N[C@H]1C(=O)N[C@@H](CC(N)=O)C(=O)N[C@H]2C(=O)N[C@H]3C(=O)N[C@H](C(=O)N[C@H](C(=O)O)c4cc(O)cc(O)c4-c4cc3ccc4O)[C@H](O)c3ccc(c(Cl)c3)Oc3cc2cc(c3O[C@@H]2O[C@H](CO)[C@@H](O)[C@H](O)[C@H]2O[C@H]2C[C@](C)(N)[C@H](O)[C@H](C)O2)Oc2ccc(cc2Cl)[C@H]1O [VANCOMYCIN],,0.78 mg/L,1.56 mg/L,1.56 mg/L,,1.1,4.16,1.1
O=C(N[C@H](CO)[C@H](O)c1ccc([N+](=O)[O-])cc1)C(Cl)Cl [CHLORAMPHENICOL],,,,,3.13 mg/L,,,
CCCCN(CCCC)CCCNC(=O)COc1cc(OCC=C(C)C)ccc1C(=O)/C=C/c1ccc(OCC=C(C)C)cc1,> 200 µg/mL,12.5 mg/L,6.25 mg/L,6.25 mg/L,> 50 mg/L,,,
COC(=O)[C@H](CCCNC(=N)N)NC(=O)[C@H](CCCNC(=N)N)NC(=O)COc1cc(OCC=C(C)C)ccc1C(=O)/C=C/c1ccc(OCC=C(C)C)cc1,120 µg/mL,3.13 mg/L,3.13 mg/L,3.13 mg/L,12.5 mg/L,,,
CCCNC(=O)COc1cc(OCC=C(C)C)ccc1C(=O)/C=C/c1ccc(OCC=C(C)C)cc1,> 200 µg/mL,> 50 mg/L,> 50 mg/L,> 50 mg/L,> 100 mg/L,,,
CC(C)=CCOc1ccc(/C=C/C(=O)c2ccc(OCC=C(C)C)cc2OCC(=O)NCCCN2CCCC2)cc1,53.4 µg/mL,6.25 mg/L,6.25 mg/L,3.13 mg/L,> 50 mg/L,,,
COC(=O)[C@H](Cc1c[nH]cn1)NC(=O)COc1cc(OCC=C(C)C)ccc1C(=O)/C=C/c1ccc(OCC=C(C)C)cc1,> 200 µg/mL,> 50 mg/L,,,> 50 mg/L,,,
CCN(CC)CCCNC(=O)COc1cc(OCC=C(C)C)ccc1C(=O)/C=C/c1ccc(OCC=C(C)C)cc1,65.7 µg/mL,6.25 mg/L,6.25 mg/L,,> 50 mg/L,,,
CC(C)=CCOc1ccc(/C=C/C(=O)c2ccc(OCC=C(C)C)cc2OCC(=O)NCCCNC(=N)N)cc1,56.5 µg/mL,1.56 mg/L,1.56 mg/L,1.56 mg/L,25 mg/L,,,
CC(C)=CCOc1ccc(/C=C/C(=O)c2ccc(OCC=C(C)C)cc2OCC(=O)NCCCN)cc1,47 µg/mL,3.13 mg/L,3.13 mg/L,1.56 mg/L,50 mg/L,,,
CC(C)=CCOc1ccc(/C=C/C(=O)c2ccc(OCC=C(C)C)cc2OCC(=O)NCCCN(C)C)cc1,78.2 µg/mL,12.5 mg/L,12.5 mg/L,12.5 mg/L,> 50 mg/L,,,
CC(C)=CCOc1ccc(/C=C/C(=O)c2ccc(OCC=C(C)C)cc2OCC(=O)N[C@@H](CCCNC(=N)N)C(=O)NCCCN)cc1,277 µg/mL,,,,6.25 mg/L,,,
CC(C)=CCOc1ccc(/C=C/C(=O)c2ccc(OCC=C(C)C)cc2OCC(=O)N[C@@H](CCCNC(=N)N)C(=O)NCCCN(C)C)cc1,181 µg/mL,,,,25 mg/L,,,
